Test results from ChEMBL document CHEMBL1268924, “Design, solid-phase synthesis, and biological evaluation of novel 1,5-diarylpyrrole-3-carboxamides as carbonic anhydrase IX inhibitors” (Bioorg Med Chem, 2010).

Key:
Carbonic anhydrase 9 = Carbonic anhydrase 9 (Homo sapiens, UniProt Q16790); test: Inhibition of human carbonic anhydrase 9 by stopped flow CO2 hydration assay
Carbonic anhydrase 1 = Carbonic anhydrase 1 (Homo sapiens, UniProt P00915); test: Inhibition of human carbonic anhydrase 1 by stopped flow CO2 hydration assay
Chain of Carbonic anhydrase 1 (P00915 whole entry): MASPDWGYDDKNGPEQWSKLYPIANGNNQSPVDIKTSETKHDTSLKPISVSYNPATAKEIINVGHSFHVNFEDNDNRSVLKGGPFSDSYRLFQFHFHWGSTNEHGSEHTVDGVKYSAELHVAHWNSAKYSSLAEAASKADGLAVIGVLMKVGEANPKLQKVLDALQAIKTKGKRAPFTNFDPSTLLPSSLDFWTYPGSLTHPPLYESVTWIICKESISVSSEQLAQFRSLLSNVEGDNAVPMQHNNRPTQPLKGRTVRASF

Row | Structure (SMILES) | Ki (Carbonic anhydrase 9) [nM] | Ki (Carbonic anhydrase 1) [nM]
1 | Cc1c(C(=O)NCCCN2CCN(C)CC2)cc(-c2ccc(-c3ccccc3)cc2)n1-c1ccc(S(N)(=O)=O)cc1 | 198 | –
2 | Cc1c(C(=O)NCCN2CCCC2)cc(-c2ccc3ccccc3c2)n1-c1ccc(S(N)(=O)=O)cc1 | 30 | –
3 | Cc1c(C(=O)NCCCN(C)C)cc(-c2ccccc2)n1-c1ccc(S(N)(=O)=O)cc1 | 131 | –
4 | Cc1c(C(=O)NCCN2CCCC2)cc(-c2ccc(-c3ccccc3)cc2)n1-c1ccc(S(N)(=O)=O)cc1 | 153 | –
5 | Cc1c(C(=O)N2CCN(C)CC2)cc(-c2ccccc2)n1-c1ccc(S(N)(=O)=O)cc1 | 135 | –
6 | Cc1c(C(=O)NCCN(C)C)cc(-c2ccccc2)n1-c1ccc(S(N)(=O)=O)cc1 | 242 | –
7 | Cc1c(C(=O)NCCCN2CCOCC2)cc(-c2ccc3ccccc3c2)n1-c1ccc(S(N)(=O)=O)cc1 | 137 | –
8 | Cc1c(C(=O)NCCN2CCN(C)CC2)cc(-c2ccc(-c3ccccc3)cc2)n1-c1ccc(S(N)(=O)=O)cc1 | 207 | –
9 | Cc1c(C(=O)NCCCN(C)C)cc(-c2ccc3ccccc3c2)n1-c1ccc(S(N)(=O)=O)cc1 | 11 | –
10 | Cc1c(C(=O)NCCCN(C)C)cc(-c2ccc(-c3ccccc3)cc2)n1-c1ccc(S(N)(=O)=O)cc1 | 111 | –
11 | Cc1c(C(=O)N2CCN(C)CC2)cc(-c2ccc(-c3ccccc3)cc2)n1-c1ccc(S(N)(=O)=O)cc1 | 68 | –
12 | Cc1c(C(=O)NCCN2CCCCC2)cc(-c2ccc(-c3ccccc3)cc2)n1-c1ccc(S(N)(=O)=O)cc1 | 167 | –
13 | Cc1c(C(=O)N2CCN(C)CC2)cc(-c2ccc3ccccc3c2)n1-c1ccc(S(N)(=O)=O)cc1 | – | > 10000
14 | Cc1c(C(=O)NCCN2CCCCC2)cc(-c2ccccc2)n1-c1ccc(S(N)(=O)=O)cc1 | 89 | –

Next, values leading:

Row | Ki (Carbonic anhydrase 9) [nM] | Ki (Carbonic anhydrase 1) [nM] | Structure (SMILES)
15 | 187 | – | Cc1c(C(=O)NCCN2CCOCC2)cc(-c2ccc(-c3ccccc3)cc2)n1-c1ccc(S(N)(=O)=O)cc1
16 | 22 | – | Cc1c(C(=O)NCCN2CCOCC2)cc(-c2ccc3ccccc3c2)n1-c1ccc(S(N)(=O)=O)cc1
17 | 101 | – | Cc1c(C(=O)NCCCN2CCOCC2)cc(-c2ccc(-c3ccccc3)cc2)n1-c1ccc(S(N)(=O)=O)cc1
18 | 200 | – | Cc1c(C(=O)NCCN2CCOCC2)cc(-c2ccccc2)n1-c1ccc(S(N)(=O)=O)cc1
19 | 147 | – | Cc1c(C(=O)NCCCN2CCN(C)CC2)cc(-c2ccc3ccccc3c2)n1-c1ccc(S(N)(=O)=O)cc1
20 | 126 | – | Cc1c(C(=O)NCCN2CCN(C)CC2)cc(-c2ccc3ccccc3c2)n1-c1ccc(S(N)(=O)=O)cc1
21 | 125 | – | Cc1c(C(=O)NCCN2CCCCC2)cc(-c2ccc3ccccc3c2)n1-c1ccc(S(N)(=O)=O)cc1
22 | 10 | – | Cc1c(C(=O)NCCN(C)C)cc(-c2ccc3ccccc3c2)n1-c1ccc(S(N)(=O)=O)cc1
